Source: patent publication US9745335B2 (Blirt S.A., priority 2012, dated 2017)
Converted amounts (≈) assume the structure as drawn. Like-named read-outs stand apart in the source and are kept apart here.

Columns and labels:
[1] = system: Candida albicans ATCC 10231; test: antifungal activity in vitro, serial dilution in RPMI 1640; format: cell-based
Description: (§1) For the determination of antifungal activity in vitro we used method of serial dilution in buffered medium RPMI 1640, pH 7.0, in a 96-wells microplates, according to the standard procedure (National Committee for Clinical Laboratory Standards. Reference method for broth dilution antifungal susceptibility testing of yeast, approved standard, 2nd ed. M27-A2 vol. 22 Wayne, Pa., 2002). The optical density of cells suspension was measured using a microplates reader (Victor^3, Perkin-Elmer) at the wavelength λ=531 nm (A531). On the basis of obtained results the diagrams of relation between A531 values and concentration of examined compound were made.

[2] = system: Candida lusitaniae DSM 70102; test: as above; format: cell-based
Description: as §1

[3] = system: Candida krusei DSM 6128; test: as above; format: cell-based
Description: as §1

[4] = system: Saccharomyces cerevisiae ATCC 9763; test: as above; format: cell-based; details: RPMI 1640, pH 7.0; for Antifungal activity IC50: Saccharomyces cerevisiae ATCC 9763 (first head over MIC and IC50); for Antifungal activity MIC: Saccharomyces cerevisiae ATCC 9763
Description: as §1

[5] = system: Candida tropicalis KKP 334; test: as above; format: cell-based
Description: as §1

[6] = system: Candida glabrata DSM 11226; test: as above; format: cell-based
Description: as §1

[7] = system: HepG2 cells; test: cytotoxic activity against mammalian cells in tissue culture (MTT); format: cell-based, human
Description: (§2) All media contained 100 μg/ml of penicillin G and streptomycin. 24-wells microplates containing appropriate medium were inoculated with the cells in amount of 1.2×10^4 cells/well and allowed to stand overnight. Next, tested compounds as solution in dimethylsulfoxide (DMSO) were added in volume of 10 μl (serial 2× dilutions). To control well 10 μl of DMSO was added. Microplates with cell suspensions were incubated for 120 h at temperature 37° C. at atmosphere of 95%/5% CO2. After incubation, to all wells 200 μl of solution of 3-(4,5-dimethyltiazole-2-yl)-2,5-diphenylotetrazole bromide (MTT) in PBS (4 mg/ml) was added and plates were further incubated for 4 h at 37° C. Next, to dissolve crystals of formazane 1 ml of DMSO was added and absorption of solutions was measured at the wavelength λ=540 nm (A540), using a microplates reader (Victor^3, Perkin-Wallac). […] From these graphs IC50 values were read, that is concentration of tested compound in the presence at which A540 value is half of A540 value measured in the control sample.

[8] = system: CCRF-CEM cells; test: as above; format: cell-based, human
Description: as §2

[9] = system: Human erythrocytes; test: hemotoxicity determination (hemolytic activity); format: cell-based
Description: The hemotoxicity determination was carried out by the serial dilutions method, according to the procedure described earlier (Slisz, M., et al., E., J Antibiot 57: 669-678 (2004). Human erythrocytes were suspended in the solution of saline to obtain a cell density of suspension 2×10^7/ml. Suitable amounts of diluted solutions of compounds were added to the cell suspension in tubes and were incubated at 37° C. for 30 minutes and then centrifuged (1700×g, 10 min, 4° C.). The concentration of hemoglobin in supernatant after centrifugation of erythrocytes suspension were determined by measuring the absorbance at wavelength λ=540 nm (A540). The maximum level of hemolysis was obtained after incubation of cells suspension in the presence of 0.1% Tritone X-100 (control sample). […] From these graphs, the EH50 values were read which are the interpolated concentrations of compound, for which the A540 value is exactly 50% of the A540 value measured for the control sample.

[10] = system: Candida lipolytica KKP 322; test: antifungal activity in vitro, broader spectrum; format: cell-based
Description: as §1
(§3) Obtained results are presented below in tables 2A and 2B.

[11] = system: Candida arborea KKP 319; test: antifungal activity in vitro, broader spectrum; format: cell-based
Description: as §1, §3

[12] = system: Trichoderma viride LOCK E159; test: antifungal activity in vitro, broader spectrum; format: cell-based
Description: as §1, §3

[13] = system: Candida dubliniensis CBS 7987; test: antifungal activity in vitro, broader spectrum; format: cell-based
Description: as §1, §3

[14] = system: Candida pseudotropicalis KKP 324; test: antifungal activity in vitro, broader spectrum; format: cell-based
Description: as §1, §3

[15] = system: Candida quilliermondii DSM 11947; test: antifungal activity in vitro, broader spectrum; format: cell-based
Description: as §1, §3

[16] = system: Candida albicans SC 5314; test: antifungal activity in vitro, broader spectrum; format: cell-based
Description: as §1, §3

[17] = system: Aspergillus niger LOCK E201; test: antifungal activity in vitro, broader spectrum; format: cell-based
Description: as §1, §3

[18] = system: Candida parapsilosis DSM 5784; test: antifungal activity in vitro, broader spectrum; format: cell-based
Description: as §1, §3

[19] = system: Candida stellatoidea CBS 1905; test: antifungal activity in vitro, broader spectrum; format: cell-based
Description: as §1, §3

[20] = system: Candida albicans clinical strain Gu4; test: antifungal activity against MDR fungal strains and parents; format: cell-based; details: C. albicans Gu4, fluconazole sensitive, parent strain for Gu5
Description: as §1

[21] = system: Candida albicans clinical strain B3; test: as above; format: cell-based; details: C. albicans B3, fluconazole sensitive, parent strain for B4
Description: as §1

[22] = system: Candida albicans clinical strain F5 (CaMdr1p); test: as above; format: cell-based; details: C. albicans F5 (CaMdr1p), fluconazole-resistant
Description: as §1

[23] = system: Candida albicans clinical strain Gu5 (CaCdr1p, CaCdr2p); test: as above; format: cell-based; details: C. albicans Gu5 (CaCdr1p, CaCdr2p), fluconazole-resistant
Description: as §1

[24] = system: Candida albicans strain 5674 (CaCdr1p, CaCdr2p); test: as above; format: cell-based; details: C. albicans 5674 (CaCdr1p, CaCdr2p)
Description: as §1

[25] = system: Candida albicans strain STY31; test: as above; format: cell-based; details: C. albicans STY31, 5674 derivative, deletion of CDR1 and CDR2
Description: as §1

[26] = system: Candida albicans strain STY7 (CaCdr1p); test: as above; format: cell-based; details: C. albicans STY7 (CaCdr1p), 5674 derivative, deletion of CDR2
Description: as §1

[27] = system: Candida albicans clinical strain B4 (CaMdr1p); test: as above; format: cell-based; details: C. albicans B4 (CaMdr1p), fluconazole-resistant
Description: as §1

[28] = system: Candida albicans clinical strain F2; test: as above; format: cell-based; details: C. albicans F2, fluconazole sensitive, parent strain for F5
Description: as §1

[29] = system: LLC-PK1 cells; test: cytotoxic activity against mammalian cells in tissue culture (MTT); format: cell-based, pig
Description: as §2

Molecule | Antifungal activity MIC [1] [µg/mL] | Antifungal activity MIC [2] [µg/mL] | Antifungal activity MIC [3] [µg/mL] | Antifungal activity IC50 [4] [µg/mL] | Antifungal activity MIC [4] [µg/mL] | Antifungal activity MIC [5] [µg/mL] | Antifungal activity MIC [6] [µg/mL] | IC50 (cytotoxic activity) [7] [µg/mL] | IC50 (cytotoxic activity) [8] [µg/mL] | Hemotoxi EH50 [9] [µg/mL] | Antifungal activity MIC [10] [µg/mL] | Antifungal activity MIC [11] [µg/mL] | Antifungal activity MIC [12] [µg/mL] | Antifungal activity MIC [13] [µg/mL] | Antifungal activity MIC [14] [µg/mL] | Antifungal activity MIC [15] [µg/mL] | Antifungal activity MIC [16] [µg/mL] | Antifungal activity MIC [17] [µg/mL] | Antifungal activity MIC [18] [µg/mL] | IC50 (cytotoxic activity) [29] [µg/mL] | other results
N-(L-N,N-diethylphenylalanyl)amphotericin B [Compound A42] | 4 | 4 | 8 | 2.75 | 4 | 4 | 8 | >100 | >100 | >100 | 4 | 4 | 2 | 2 | 4 | 4 | 4 | 1 | 4 | >100 | Antifungal activity MIC [19]: 4 µg/mL; Antifungal activity MIC [20]: 2 µg/mL; Antifungal activity MIC [21]: 2 µg/mL; Antifungal activity MIC [22]: 2 µg/mL; Antifungal activity MIC [23]: 4 µg/mL; Antifungal activity MIC [24]: 4 µg/mL; Antifungal activity MIC [25]: 4 µg/mL; Antifungal activity MIC [26]: 4 µg/mL; Antifungal activity MIC [27]: 8 µg/mL; Antifungal activity MIC [28]: 1 µg/mL
N-(L-N,N-dimethylphenylalanyl)amphotericin B [Compound A43] | 4 | 2 | 4 | 1.43 | 4 | 4 | 4 | >100 | >100 | >100 | 1 | 8 | 4 | 1 | 2 | 1 | 1 | 1 | 1 | >100 | Antifungal activity MIC [19]: 1 µg/mL; Antifungal activity MIC [20]: 1 µg/mL; Antifungal activity MIC [21]: 0.5 µg/mL; Antifungal activity MIC [22]: 4 µg/mL; Antifungal activity MIC [23]: 2 µg/mL; Antifungal activity MIC [24]: 1 µg/mL; Antifungal activity MIC [25]: 1 µg/mL; Antifungal activity MIC [26]: 0.5 µg/mL; Antifungal activity MIC [27]: 1 µg/mL; Antifungal activity MIC [28]: 4 µg/mL
N-methyl-L-(O^γ-tert-butyl)glutamylamphotericin B [Compound A34] | 4 | 2 | 4 | 1.22 | 2 | 4 | 4 | >100 | >100 | >100 | 1 | 4 | 4 | 1 | 1 | 2 | 1 | 2 | 1 | >100 | Antifungal activity MIC [19]: 1 µg/mL; Antifungal activity MIC [20]: 1 µg/mL; Antifungal activity MIC [21]: 1 µg/mL; Antifungal activity MIC [22]: 8 µg/mL; Antifungal activity MIC [23]: 2 µg/mL; Antifungal activity MIC [24]: 4 µg/mL; Antifungal activity MIC [25]: 2 µg/mL; Antifungal activity MIC [26]: 2 µg/mL; Antifungal activity MIC [27]: 2 µg/mL; Antifungal activity MIC [28]: 4 µg/mL
C[C@@H]1[C@H](O)[C@@H](C)/C=C/C=C/C=C/C=C/C=C/C=C/C=C/[C@H](O[C@@H]2O[C@H](C)[C@@H](O)[C@H](NC(=O)[C@H](N)CC(=O)OC(C)(C)C)[C@@H]2O)C[C@@H]2O[C@](O)(C[C@@H](O)C[C@@H](O)[C@H](O)CC[C@@H](O)C[C@@H](O)CC(=O)O[C@H]1C)C[C@H](O)[C@H]2C(=O)O [Compound A35, N-D-(O^β-tert-butyl)asparagylamphotericin B] | 4 | 2 | 4 | 1.40 | 4 | 4 | 4 |  |  |  |  |  |  |  |  |  |  |  |  |  | IC50 (cytotoxic activity) ([7]; HepG2, 120 h, MTT): >100 µg/mL; IC50 (cytotoxic activity) ([8]; CCRF-CEM, 120 h, MTT): >100 µg/mL; Hemotoxi EH50 ([9]; human erythrocytes, 37° C., 30 minutes): >100 µg/mL; IC50 (cytotoxic activity) ([29]; LLC-PK1, 120 h, MTT): 70.7 ± 2.3 µg/mL (≈ 64.5 µM)
CCN(CC)CCNC(=S)N[C@@H]1[C@H](O)[C@H](O[C@H]2/C=C/C=C/C=C/C=C/C=C/C=C/C=C/[C@H](C)[C@@H](O)[C@@H](C)[C@H](C)OC(=O)C[C@H](O)C[C@H](O)CC[C@@H](O)[C@H](O)C[C@H](O)C[C@]3(O)C[C@H](O)[C@@H](C(=O)O)[C@H](C2)O3)O[C@H](C)[C@H]1O [Compound A25, N-{3-[2-(N,N-diethylamino)ethyl]thioureidyl}amphotericin B] | 2 | 2 | 4 | 0.85 | 2 | 2 | 4 | >100 | >100 | >100 |  |  |  |  |  |  |  |  |  | >100 | 
